Assays:
[1] = tested on: lipopolysaccharide (LPS)-stimulated mouse primary peritoneal macrophages; conditions: in vitro; cited from earlier work
As1 = test: Immunohistochemistry staining of distal colon sections for As1; format: in vivo, mouse; conditions: after colitis induction, vs control mice with colitis, FIG. 3E, 4A
Description: Four micrometer paraffin embedded tissue sections were deparaffinized and rehydrated. Endogenous peroxidase was blocked with three percent H2O2 in methanol. Sections undergoing for ALS staining were incubated in cold acetone at −20° C. for 7 minutes. For F4/80 and MAC-2 staining, the present inventors performed antigen retrieval in Tris-EDTA pH 9 and 10 mM citric acid pH 6, for 10 minutes, respectively, using a low boiling program in the microwave to break protein cross-links and unmask antigens. After pre-incubation with 20% normal horse serum and 0.2% Triton X-100 for 1 hour at RT (root temperature), sections were incubated with the primary antibodies as follow; ASL (1:100, Abcam, ab97370, CA, USA); F4/80 (1:50, Serotec, Kidllington, UK); Mac-2 (1:400, Cedarlane, N.C., USA). For fluorescent double-staining of ASL and CD11c the mouse anti ASL (1:50 Santa Cruz Biotechnology, Inc. sc-166787, TX, USA) and rabbit anti CD11c (1:50, ab52632) were used. All antibodies were diluted in PBS containing 2% normal horse serum and 0.2% Triton. Sections were incubated overnight at RT followed by 48 hours at 4° C. Sections were washed three times in PBS and incubated with secondary biotinylated IgG at RT (room temperature) for 1.5 hour, washed three times in PBS and incubated with avidin-biotin Complex (Elite-ABC kit, Vector Lab, CA, USA) at RT for additional 90 minutes followed by DAB (Sigma) reaction. For the fluorescent staining the CY2 conjugated anti mouse and CY3 conjugated streptavidin (1:100 and 1:200 respectively, Jackson ImmunoResearch, West Grove, Pa.) were used.

control mice = test: DSS colitis (0.8% DSS) in control mice, fisetin or NaNO2; format: in vivo, mouse; conditions: control (WT) mice, 0.8% DSS 5 days, fisetin 1 mg IP twice, FIGS. 4L-N
Description: Colitis was induced on C57BL/6J.OlaaHsd mice. Mice were treated with 1% DSS for 6 days, followed by administration of either fiselin (1 mg in 30 μl DMSO IP, twice, in 3 days interval) citrulline 1% (wt/vol) solution in drinking water, the combination of both treatments or only DMSO as a control (30 μl DMSO IP, twice, in 3 days interval). […] FIGS. 4L-N—Colitis was induced on enterocytes CKO mice and compared to controls. Mice were treated with 0.8% DSS for 5 days, followed by administration with either NO donors; NaNO2 (100 mg/kg) or fisetin (1 mg in 30 μl DMSO IP, twice, in 3 days interval). […] Note that colitis severity is reduced by activating As1 in enterocytes, by citrulline and fisetin supplementation.
Colitis was induced in Vav1^Cre:As1^f/f mice and CD11c^Cre:As1^f/f with 1.5% DSS and with 0.8% DSS in the Villin^Cre:As1^f/f (wt/vol), (Dextran Sodium Sulfate, MP Biomedicals; molecular weight 36,000-50,000 Da). […]
Colonoscopy was performed on days 7 and 11 of the experiment to monitor for severity of colitis. […] The endoscopic procedure was viewed on a color monitor and digitally recorded on tape. Colitis was scored according to the Murine endoscopic index of colitis severity (MEICS), considering differences in the thickness of the bowel wall, changes in blood vessel integrity, mucosal surface, stool consistency or the presence of fibrin, scored each between 0 and 3. […]

In the case of `O=c1c(O)c(-c2ccc(O)c(O)c2)oc2cc(O)ccc12` [fisetin, 3,7, 3′, 4′-tetrahydroxyflavone], the pro-inflammatory cytokine [1] is listed as “significantly reduces pro-inflammatory cytokine”, the “As1 expression in distal colon sections (intestine, enterocytes)” value (As1) is listed as “up regulation” and the “As1 expression in distal colon sections (intestine, enterocytes)” value (As1; listed as fesitin) is listed as “upregulated”. For the same molecule, the “effect of treatment on colitis (survival, body weight gain, colitis score)” value (control mice) was “improved colitis severity” and the “effect of treatment on colitis (survival, body weight gain, colitis score)” value (control mice; listed as Fisetin) was “effective in the control group”.
